{
  "source": "patent US9949948B2",
  "about": "“Artemisinin and its derivatives for use in the treatment of trauma haemorrhage and associated conditions” (Queen Mary University of London, priority 2011, dated 2018)",
  "type_in_all_cases": "in vivo, Wistar rats",
  "key": {"burn injury rats": {"system": "burn injury rats", "assay": "Organ injury and dysfunction induced by burn injury in the rat", "conditions": "3 mg/kg i.v. 30 min prior to and 30 min after burn injury", "experimental": "Twenty-two male Wistar rats (Harlan, Udine, Italy) weighing 300 to 350 g were anaesthetised with sodium pentobarbital (Eutasil™, 60 mg/kg i.p.; Sanofi Veterinária, Algés, Portugal), which was supplemented as required. Anaesthetised rats were shaved (dorsum and abdomen) and placed onto a thermostatically controlled heating mat (Harvard Apparatus Ltd, Kent, U.K.) and body temperature maintained at 37±1° C. by means of a rectal probe attached to a homeothermic blanket. A tracheotomy was performed to maintain airway patency and to facilitate spontaneous respiration. Thirty minutes prior to burn injury, rats were treated with vehicle or drug, as described in section 3.2. To induce burn injury, a 60% third degree skin burn was induced by immersing dorsal shaved skin in 99° C. water for 10 s using a synthetic foam template. The rats were then dried and placed over the heating mat. Rats were sacrificed at 6 hours after burn injury by overdose of the anaesthetic and serum samples obtained for analysis of organ injury and dysfunction.\nSham-operated rats underwent identical surgical procedures but without burn injury (immersed in room temperature water)."}, "[1]": {"system": "rats subjected to regional myocardial ischaemia and reperfusion", "assay": "Regional myocardial ischaemia and reperfusion, artesunate and dihydroartemisinin", "experimental": "(§1) Rats were anaesthetised with thiopentone sodium (Intraval® 120 mg/kg i.p.). Anaesthesia was maintained by supplementary injections of thiopentone sodium as required. The trachea was cannulated and the animals were ventilated with a Harvard ventilator (inspiratory oxygen concentration: 30%; 70 strokes/min, tidal volume: 8-10 ml/kg). Body temperature was maintained at 37±1° C. with the aid of a rectal probe thermometer attached to a homeothermic blanket unit (Harvard Apparatus Ltd., Edenbridge, Kent. U.K.). […] The right jugular vein was then cannulated for the administration of drugs and saline. A para-sternal thoracotomy was then performed, using an Electrosurgery device to cauterize the intercostals arteries before cutting through three ribs. The chest was retracted and pericardium dissected from the heart. The left anterior descending (LAD) coronary artery was isolated and a snare occluder was placed around the LAD. The retractor was then removed and the animal was allowed to stabilise for 15 min.\n(§2) The occluder was tightened at time 0. After 25 min of LAD-occlusion, the occluder was released to allow reperfusion of the previously ischemic myocardium (2 h). Haemodynamic parameters were continuously monitored. Baseline readings were taken prior to treatment, and, myocardial ischaemia reperfusion (IR) injury. The pressure rate index (PRI), a relative indicator of myocardial oxygen consumption was calculated as a product of the MAP (mmHg) and HR (beats/minute-bpm) and expressed in mm Hg bpm×10^−3.\n(§3) At the end of the 2 h reperfusion period, the LAD was re-occluded and 1 ml of Evans Blue dye (2% w/v) was injected into the animal, via the jugular vein. The Evans Blue dye stains the tissue it can circulate through, therefore the non-perfused vascular (occluded) tissue remains un-coloured. Each animal was killed with an over-dose of anaesthetic, the heart excised, and excess dye washed off. […] The ischaemic and non-ischaemic tissue was weighed, and the AAR expressed as a percentage of the left ventricle. The tissue from the AAR was cut into small pieces and incubated with p-nitroblue tetrazolium (NBT, 0.5 mg/ml) for 30 min at 37° C. NBT is a reducing agent that reacts with dehydrogenases present in viable (non-infarcted) tissue to produce a dark blue formazan. Infarcted tissue (non-viable) will not have dehydrogenase activity and will therefore fail to stain. The stained tissue was separated from the infarcted tissue, weighed, and the infarct size expressed as a percentage of the AAR.\n(§4) Sham-operated rats were subjected to surgical procedure without myocardial ischaemia and reperfusion."}, "[2]": {"system": "rats subjected to regional myocardial ischaemia and reperfusion", "assay": "Regional myocardial ischaemia and reperfusion, vehicle 5% sodium bicarbonate", "conditions": "for infarct size (percentage of the AAR): control 57.6±2.1%; for area at risk: compared to vehicle treated rats", "experimental": "as §1, with “Kent,” for “Kent.”\nas §2, §3, §4"}, "[3]": {"conditions": "1 mg/kg i.v. upon reperfusion, vs control"}, "[4]": {"conditions": "bolus 1 mg/kg upon reperfusion, P>0.05 vs Control"}, "[5]": {"conditions": "bolus 0.3, 1 or 10 mg/kg upon reperfusion, P>0.05 vs Control"}},
  "data": [
    {"smiles": "C[C@H]1[C@H](OC(=O)CCC(=O)O)O[C@@H]2O[C@@]3(C)CC[C@H]4[C@H](C)CC[C@@H]1[C@@]24OO3", "note": "[artesunate]", "values": [
      {"measurement": "rise in serum creatinine", "setting": "burn injury rats; 6 h after burn, P<0.05", "result": "significantly attenuated"},
      {"measurement": "rise in serum urea", "setting": "burn injury rats; 6 h after burn, P<0.05", "result": "significantly attenuated"},
      {"measurement": "rise in serum ALT", "setting": "burn injury rats; P>0.05", "result": "no significant effect"},
      {"measurement": "rise in serum AST", "setting": "burn injury rats; P>0.05", "result": "no significant effect"},
      {"measurement": "infarct size (percentage of the AAR)", "setting": "[1]; 1 mg/kg i.v. bolus upon reperfusion, from 59.8±3.2, P<0.05", "result": "36.0±1.1", "unit": "%"},
      {"measurement": "Infarct size reduction", "setting": "[1]; [3]", "result": 40, "unit": "%"},
      {"measurement": "area at risk", "setting": "[1]; 1 mg/kg, compared to vehicle treated rats", "result": "no significant effect"},
      {"measurement": "fall in mean arterial blood pressure caused by myocardial ischaemia and reperfusion", "setting": "[1]; [4]", "result": "did not attenuate"},
      {"measurement": "heart rate", "setting": "[1]; [4]", "result": "did not have a significant effect"},
      {"measurement": "infarct size (percentage of the AAR)", "setting": "[2]; 0.3 mg/kg i.v. bolus upon reperfusion", "result": "44.0±2.61", "unit": "%"},
      {"measurement": "area at risk", "setting": "[2]; 0.3 mg/kg", "result": "no significant effect"},
      {"measurement": "Infarct size reduction", "setting": "[2]; [3]", "result": 40, "unit": "%"},
      {"measurement": "infarct size (percentage of the AAR)", "setting": "[2]; 1 mg/kg i.v. upon reperfusion, P<0.05", "result": "42.6±1.1", "unit": "%"},
      {"measurement": "area at risk", "setting": "[2]; 1 mg/kg", "result": "no significant effect"},
      {"measurement": "infarct size", "setting": "[2]; 10 mg/kg i.v. upon reperfusion, P>0.05", "result": "no significant effect"},
      {"measurement": "area at risk", "setting": "[2]; 10 mg/kg", "result": "no significant effect"},
      {"measurement": "fall in mean arterial blood pressure caused by myocardial ischaemia and reperfusion", "setting": "[2]; [5]", "result": "did not attenuate"},
      {"measurement": "heart rate", "setting": "[2]; [5]", "result": "did not have a significant effect"}
    ]}
  ]
}
